This is an account of results in PubChem BioAssay (NCI).

Among the test systems are DLD-1 colon; SF-295 CNS; SNB-19 CNS; HCC-2998 colon; K-562 leukemia; IGROV1 ovarian; LXFL 529 NSCLC; OVCAR-3 ovarian; PC-3 prostate; HS 578T breast.
Common to all, as to test: inhibition of tumour cell growth, NCI panel, 48 h

Each structure is given as a SMILES string. Where “and” joins values, the source holds several entries; their conditions need not be identical. Identical values can stand only once.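 Each compound was tested at five concentrations against cells in 96-well plates for 48 hours. GI50 marks 50% less growth. At the TGI there is no net growth.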

As to `Cc1ccc(S(=O)(=O)OCC/C(=C\[Si](C)(C)C)c2ccccc2)cc1`, the TGI in the experiment with DLD-1 colon, in the experiment with SF-295 CNS, with SNB-19 CNS, in the experiment on HCC-2998 colon, in the experiment with K-562 leukemia and with IGROV1 ovarian was more than 100 µM throughout. Further, the TGI in the experiment on LXFL 529 NSCLC and with OVCAR-3 ovarian was more than 100 µM in each case.

For `CCc1cccc(C)c1NC(=O)CCc1nc(=S)[nH][nH]1`, the TGI in the experiment with DLD-1 colon, in the experiment on SF-295 CNS, in the experiment with SNB-19 CNS, in the experiment on HCC-2998 colon, with K-562 leukemia and in the experiment on IGROV1 ovarian was more than 100 µM each time. For the same molecule, the TGI with LXFL 529 NSCLC and in the experiment on OVCAR-3 ovarian was more than 100 µM in each case.

As to `O=c1/c(=C/c2ccccc2[N+](=O)[O-])sc2nnc(-c3cccnc3)n12`, the TGI was more than 100 µM in the experiment with DLD-1 colon; more than 100 µM with SF-295 CNS; 32.1 µM in the experiment with SNB-19 CNS; more than 100 µM in the experiment with HCC-2998 colon; more than 100 µM in the experiment on K-562 leukemia; more than 100 µM with IGROV1 ovarian. The TGI with LXFL 529 NSCLC and with OVCAR-3 ovarian was more than 100 µM each time.

As for `O=C1/C(=C\c2ccccc2)CN(C(=O)CCN2CCCCC2)C/C1=C/c1ccccc1`, the TGI in the experiment with DLD-1 colon is 3.12 µM; with SF-295 CNS, 3.16 µM; in the experiment on SNB-19 CNS, 4.57 µM; in the experiment with HCC-2998 colon it was 2.81 µM; in the experiment on PC-3 prostate it was 3.25 µM; in the experiment on K-562 leukemia, 0.799 µM. The TGI in the experiment on IGROV1 ovarian amounted to 4.48 µM; in the experiment with HS 578T breast, 5.87 µM; in the experiment on LXFL 529 NSCLC, 3.05 µM; in the experiment with OVCAR-3 ovarian, 6.5 µM.

On to `O=C(NC12CC3CCC1CC(C3)C2)[C@@H]1CCCN1C(=O)OCc1ccccc1` (some centres undefined), for which the TGI in the experiment on DLD-1 colon, in the experiment on SF-295 CNS, in the experiment with SNB-19 CNS, with HCC-2998 colon, in the experiment on K-562 leukemia and in the experiment on IGROV1 ovarian was more than 100 µM each time. For the same molecule, the TGI in the experiment on LXFL 529 NSCLC and in the experiment with OVCAR-3 ovarian was more than 100 µM throughout.

For `COC(=O)CCC(NC(=S)N/N=C/c1cccs1)C(=O)OC` (centres undefined), the TGI in the experiment on DLD-1 colon, in the experiment with SF-295 CNS, with SNB-19 CNS, in the experiment on HCC-2998 colon, with K-562 leukemia and with IGROV1 ovarian was more than 100 µM throughout. In addition, the TGI in the experiment with LXFL 529 NSCLC and in the experiment with OVCAR-3 ovarian was more than 100 µM throughout.

On to `O=C1NC(=O)c2c1n(Cc1ccccc1)c(=O)n2Cc1ccccc1`, for which the TGI in the experiment with DLD-1 colon, in the experiment on SF-295 CNS, in the experiment on SNB-19 CNS, in the experiment on HCC-2998 colon, with K-562 leukemia and in the experiment on IGROV1 ovarian was more than 100 µM in each case. Besides, the TGI with LXFL 529 NSCLC and in the experiment with OVCAR-3 ovarian was more than 100 µM throughout.

In the case of `COC1N(C2CC(O)C(CO)O2)C(=O)NC(=O)C1(F)Br` (centres undefined), the TGI was 50 µM in the experiment on DLD-1 colon; 50 µM and > 100 µM in the experiment on SF-295 CNS; 50 µM and > 100 µM in the experiment on SNB-19 CNS; 50 µM and 98 µM in the experiment with HCC-2998 colon; more than 100 µM in the experiment with PC-3 prostate; 50 µM and > 100 µM in the experiment on K-562 leukemia. The TGI was more than 100 µM in the experiment on IGROV1 ovarian, more than 95.5 µM with HS 578T breast, 50 µM in the experiment on LXFL 529 NSCLC and more than 100 µM in the experiment on OVCAR-3 ovarian. Also, the GI50 in the experiment with SF-295 CNS is 21.9 µM; in the experiment with SNB-19 CNS, 26.6 µM; in the experiment on HCC-2998 colon, 1.14 µM; in the experiment on IGROV1 ovarian it was more than 50 µM; in the experiment with OVCAR-3 ovarian, more than 50 µM.

Regarding `CCOC(=O)c1nc(C)oc1C(F)(F)F`, the TGI in the experiment on DLD-1 colon, with SF-295 CNS, in the experiment on SNB-19 CNS, in the experiment on HCC-2998 colon, with K-562 leukemia and in the experiment on IGROV1 ovarian was more than 100 µM in each case. For the same molecule, the TGI in the experiment with LXFL 529 NSCLC and in the experiment on OVCAR-3 ovarian was more than 100 µM each time.

On to `COc1cc([C@@H]2c3cc4c(cc3[C@@H](NC(=O)c3ccc(C#N)cc3)C3COC(=O)[C@@H]32)OCO4)cc(OC)c1O` (some centres undefined), for which the TGI is 12 µM in the experiment on DLD-1 colon; 11.8 µM in the experiment on SF-295 CNS; 4.65 µM in the experiment on SNB-19 CNS; 4.18 µM with HCC-2998 colon; more than 100 µM with K-562 leukemia; 5.13 µM with IGROV1 ovarian. The figures for the TGI in the experiment with LXFL 529 NSCLC and in the experiment on OVCAR-3 ovarian were more than 100 µM and 4.66 µM, respectively.

Consider `NNC(=O)C(=O)N/N=C1/CCCC1C(=O)CCC(=O)Nc1ccc(Cl)cc1` (centres undefined), for which the TGI in the experiment with DLD-1 colon, with SF-295 CNS, in the experiment with SNB-19 CNS, in the experiment with HCC-2998 colon, in the experiment on K-562 leukemia and with IGROV1 ovarian was more than 100 µM in each case. For the same molecule, the TGI in the experiment on LXFL 529 NSCLC and with OVCAR-3 ovarian was more than 100 µM throughout.

In the case of `O=[N+]([O-])c1cccc(C2=NN(c3ccccc3)C3c4cc(Br)ccc4OCC23)c1` (centres undefined), the TGI with DLD-1 colon, in the experiment on SF-295 CNS, in the experiment on SNB-19 CNS, in the experiment on HCC-2998 colon, in the experiment with K-562 leukemia and with IGROV1 ovarian was more than 100 µM throughout. The TGI in the experiment on LXFL 529 NSCLC and in the experiment on OVCAR-3 ovarian was more than 100 µM each time.

`Cc1nc2ccccc2nc1CC(=O)C(=O)Nc1ccc(Cl)cc1Cl`: the TGI with DLD-1 colon, with SF-295 CNS, in the experiment with SNB-19 CNS, in the experiment with HCC-2998 colon, with K-562 leukemia and with IGROV1 ovarian was more than 100 µM each time. The TGI in the experiment on LXFL 529 NSCLC and in the experiment with OVCAR-3 ovarian was more than 100 µM each time.

Take `CC1=C(C(=O)Nc2ccccc2)C(c2ccc(N(C)C)cc2)C(C(=O)Nc2ccccc2)=C(C)N1`: the TGI in the experiment on DLD-1 colon is more than 100 µM; with SF-295 CNS it was 50.2 µM; with SNB-19 CNS, more than 100 µM; in the experiment with HCC-2998 colon, 23.4 µM; in the experiment with PC-3 prostate, more than 100 µM; in the experiment with K-562 leukemia, more than 69.1 µM. Besides, the TGI in the experiment on IGROV1 ovarian is more than 88.3 µM; in the experiment with HS 578T breast, more than 100 µM; in the experiment with LXFL 529 NSCLC it was more than 100 µM; in the experiment on OVCAR-3 ovarian it was more than 100 µM.

For `N#CC(C(=O)C(=O)Nc1c(Cl)cccc1Cl)c1ccccc1` (centres undefined), the GI50 in the experiment on DLD-1 colon, with SF-295 CNS, in the experiment with SNB-19 CNS, with HCC-2998 colon, with K-562 leukemia and with IGROV1 ovarian was more than 100 µM in each case. Further, the GI50 in the experiment on LXFL 529 NSCLC and in the experiment on OVCAR-3 ovarian was more than 100 µM in each case. For the same molecule, the TGI in the experiment on DLD-1 colon, with SNB-19 CNS, in the experiment with HCC-2998 colon, in the experiment with K-562 leukemia, in the experiment on IGROV1 ovarian and in the experiment with LXFL 529 NSCLC was more than 100 µM each time. The TGI with OVCAR-3 ovarian is more than 100 µM.

For `Cc1nc(N)nc(CCC(=O)Nc2cccc(C(F)(F)F)c2)c1-c1ccc(Cl)cc1`, the TGI in the experiment with DLD-1 colon, with SF-295 CNS, in the experiment with SNB-19 CNS, in the experiment on HCC-2998 colon, with K-562 leukemia and in the experiment on IGROV1 ovarian was more than 100 µM throughout. Also, the TGI with LXFL 529 NSCLC and in the experiment on OVCAR-3 ovarian was more than 100 µM each time.

With `COC(=O)C1C(=O)O[C@@H](c2ccc3c(c2)OCO3)C1C(=O)OC` (mixture of isomers), the TGI with DLD-1 colon, with SF-295 CNS, with SNB-19 CNS, in the experiment with HCC-2998 colon, in the experiment with K-562 leukemia and in the experiment with IGROV1 ovarian was more than 100 µM throughout. For the same molecule, the TGI in the experiment with LXFL 529 NSCLC and with OVCAR-3 ovarian was more than 100 µM in each case.
